Key:
[1] = target: Sigma non-opioid intracellular receptor 1 (Homo sapiens, UniProt Q99720); experiment: Binding affinity was measured on Sigma receptor type 1 using [3H]- pentazocine as radioligand
[2] = Binding affinity was measured on Sigma receptor type 2 using [3H]- DTG as radioligand
[3] = Binding affinity was measured on Sigma receptor type 1 using [3H]- pentazocine as radioligand
[4] = as above; remark: listed apart in the source

Sequence of Sigma non-opioid intracellular receptor 1 (Q99720 whole entry): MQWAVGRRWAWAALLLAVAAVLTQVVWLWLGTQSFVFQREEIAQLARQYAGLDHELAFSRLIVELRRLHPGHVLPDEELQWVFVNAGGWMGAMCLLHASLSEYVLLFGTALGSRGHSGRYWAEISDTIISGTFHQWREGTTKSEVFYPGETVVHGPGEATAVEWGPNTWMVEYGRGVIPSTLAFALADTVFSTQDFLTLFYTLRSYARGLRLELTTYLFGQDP

SMILES | Ki [1] | Ki [2] | Ki [3] | Ki [4]
CC(C)=CCN1CCC2(C)c3cc(O)c(Br)cc3CC1C2C (stereo not given) [9-Bromo-6,11-dimethyl-3-(3-methyl-but-2-enyl)-1,2,3,4,5,6-hexahydro-2,6-methano-benzo[d]azocin-8-ol] | 144 nM |  |  | 
CC1C2Cc3ccc(O)c(Cl)c3C1(C)CCN2Cc1ccccc1 (stereo not given) [3-Benzyl-7-chloro-6,11-dimethyl-1,2,3,4,5,6-hexahydro-2,6-methano-benzo[d]azocin-8-ol] |  | 764 nM | 1.72 nM | 
CC1C2Cc3cc(Br)c(O)cc3C1(C)CCN2Cc1ccccc1 (stereo not given) [3-Benzyl-9-bromo-6,11-dimethyl-1,2,3,4,5,6-hexahydro-2,6-methano-benzo[d]azocin-8-ol] |  | 1220 nM | 68.6 nM | 
CC1C2Cc3cc(Cl)c(O)c(Cl)c3C1(C)CCN2Cc1ccccc1 (stereo not given) [3-Benzyl-7,9-dichloro-6,11-dimethyl-1,2,3,4,5,6-hexahydro-2,6-methano-benzo[d]azocin-8-ol] |  | 2170 nM | 71.5 nM | 
CC(C)=CCN1CCC2(C)c3c(ccc(O)c3Cl)CC1C2C (stereo not given) [7-Chloro-6,11-dimethyl-3-(3-methyl-but-2-enyl)-1,2,3,4,5,6-hexahydro-2,6-methano-benzo[d]azocin-8-ol] |  | 4960 nM | 2.62 nM | 
CC1C2Cc3cc(Br)c(O)c(Br)c3C1(C)CCN2Cc1ccccc1 (stereo not given) [3-Benzyl-7,9-dibromo-6,11-dimethyl-1,2,3,4,5,6-hexahydro-2,6-methano-benzo[d]azocin-8-ol] |  | 2010 nM |  | 70.6 nM
CC(C)=CCN1CCC2(C)c3c(cc(Br)c(O)c3Br)CC1C2C (stereo not given) [7,9-Dibromo-6,11-dimethyl-3-(3-methyl-but-2-enyl)-1,2,3,4,5,6-hexahydro-2,6-methano-benzo[d]azocin-8-ol] |  | 211 nM | 120 nM | 
CC1C2Cc3ccc(O)c(Br)c3C1(C)CCN2Cc1ccccc1 (stereo not given) [3-Benzyl-7-bromo-6,11-dimethyl-1,2,3,4,5,6-hexahydro-2,6-methano-benzo[d]azocin-8-ol] |  | 346 nM | 1.75 nM | 
CC1C2Cc3cc(I)c(O)cc3C1(C)CCN2Cc1ccccc1 (stereo not given) [3-Benzyl-9-iodo-6,11-dimethyl-1,2,3,4,5,6-hexahydro-2,6-methano-benzo[d]azocin-8-ol] |  | 597 nM | 231 nM | 
CC(C)=CCN1CCC2(C)c3c(ccc(O)c3Br)CC1C2C (stereo not given) [7-Bromo-6,11-dimethyl-3-(3-methyl-but-2-enyl)-1,2,3,4,5,6-hexahydro-2,6-methano-benzo[d]azocin-8-ol] |  | 283 nM | 2.49 nM | 
CC(C)=CCN1CCC2(C)c3cc(O)c(I)cc3CC1C2C (stereo not given) [9-Iodo-6,11-dimethyl-3-(3-methyl-but-2-enyl)-1,2,3,4,5,6-hexahydro-2,6-methano-benzo[d]azocin-8-ol] | 35.2 nM |  |  | 
